These results are taken from patent US5807570A, “Transdermal administration of ropinirole and analogs thereof” (priority 1996, dated 1998).

Data set [1] has as its system Parkinson's disease. The conditions noted are these: patients undergoing treatment with L-Dopa; cited from earlier work.
For data set [2] the following is noted: in water at 20° C.; cited from earlier work.
A further data set relates to dopamine D2. The conditions noted are these: versus bromocriptine and pergolide; cited from earlier work.
For data set [3], the system named is Parkinson's disease. The conditions noted are these: statement in words; cited from earlier work.
Another data set deals with rabbits. In words: Skin irritation study in rabbits, modified Draize irritation protocol. In kind it is in vivo, rabbit. The settings on record: conclusion in words from Table 4. How it is done: The skin irritation study in rabbits using a modified Draize irritation protocol. The treatments included:
1) different activities of ropinirole in the selected vehicle that gave the highest flux of ropinirole slat; and
2) ropinirole in two selected vehicles. A proprietary vehicle that has been used in skin flux studies were tested as a control.
Mineral oil was used as the negative control in the study. The mean primary irritation score for each treatment was calculated.
3) ropinirole and base in three prototype systems (36048C, 36047G and 36040F; see Table 4 in Example 3, below).
Various ropinirole formulations were prepared and irritation studies conducted as described above.

Structures can show the parent of a compound that is named as a salt.

As to `N[C@@H](Cc1ccc(O)c(O)c1)C(=O)O` [L-Dopa], the therapeutic response fluctuations entry in the data set on Parkinson's disease [1] is given as “severe therapeutic response fluctuations”. In general, solubility refers to how much of the substance goes into solution per volume. In the case of `CCCN(CCC)CCc1cccc2c1CC(=O)N2` [Ropinirole hydrochloride], in data set [2], the solubility is 133 mg/mL.

Turning to `CCCN(CCC)CCc1cccc2c1CC(=O)N2` [ropinirole, 4-[2-(dipropylamino)ethyl]-1,3-dihydro-2H-indol-2-one], the “specificity as dopamine D2 agonist” value in the data set with dopamine D2 was “more specific dopamine D2 agonist than other dopamine agonists such as bromocriptine and pergolide”. Also, the “effectiveness in the treatment of Parkinson's disease” value with Parkinson's disease [3] is reported as “effective in the treatment of Parkinson's disease”. In addition, in the data set with rabbits, the “irritation encountered upon transdermal administration” value was “minimal”.
